From patent US7001625B2, “Solid phase synthesis of salts of organic acids including butyric acid” (Kemin Industires, Inc., priority 2001, dated 2006)

Legend:
Ross broiler chicks = assay: Broiler pen trial, early chick growth to 15 days (organic acids and sodium butyrate); format: in vivo
Description: In a broiler trial four different treatments were used in order to evaluate the possible synergistic effect between organic acids and sodium butyrate.
This pen trial included eight replicates of four treatments (Table 1). Each pen had 74 mixed sex commercial Ross broiler chicks. Birds were fed a wheat-based diet including enzymes. All birds were weighed on days 1, 5, 10 and 15.

Ross broilers = assay: Broiler floor pen trial to day 39, formulations with or without calcium butyrate vs Avilamycine; format: in vivo
Description: The objective of this trial was to study and compare two formulations (Table 4) with organic acids and calcium salts of organic acids. One of the formulations included calcium butyrate. Both formulations were compared with a positive and negative control in order to evaluate their possible growth promoting effect evaluated by broiler performance.
Twelve-hundred Ross broilers were divided over 40 floor pens. Each pen contained 15 male and 15 female Ross broilers, one tube feeder and one bell drinker. Feed and water were available ad libitum. All birds received a broiler starter feed from day 0 until day 11 and a broiler finisher meal from day 11 until day 39. […] Pens were assigned to one of four treatments (ten replicate pens for each treatment) using a block randomization. The in feed treatments consisted of: A. no treatment (negative control); B. Avilamycine 10 g/ton (positive control, dosed as Maxus G200 at 50 g/ton); C. Mixture 1, 5000 g/ton and D. mixture 2, 5000 g/ton. In the broiler house the temperature program started on day 0 at 31° C. decreasing 1° C. every two days until 21° C. was reached. The day-night cycle was 23 hours light and 1 hour dark. All birds were weighed at days 0, 11, 25, and 39. Feed usage was measured at days 11, 25 and 39. Live performance data were analyzed as a randomized block design with pen means as the statistical unit. Statistical analysis was performed with Figurepad Instat 2.0 and Microsoft Excel Analysis Toolpak software.

[1] = to 15 days, wheat-based diet, doses as in Table 1
[2] = day 11, Avilamycine 10 g/ton, formulations 5000 g/ton in feed, mean ± SD
[3] = day 25, Avilamycine 10 g/ton, formulations 5000 g/ton in feed, mean ± SD
[4] = day 39, Avilamycine 10 g/ton, formulations 5000 g/ton in feed, mean ± SD

Molecule	Feed conversion ratio based on weight gain, statistical comparison with control/other treatments (Ross broiler chicks; day 15, P<0.039 for the combination)	FCR based on wt gain (Ross broiler chicks; [1]) [a]	Feed consumed (g/bird) (Ross broiler chicks; [1])	Weight gain (g/bird) (Ross broiler chicks; [1]) [a g/bird]	FCR day 11 (Ross broilers; [2]) [a]	WG(g) Day 11 (Ross broilers; [2]) [a g]	Weight gain compared with control groups, in words (Ross broilers; day 25)	FCR day 25 (Ross broilers; [3]) [a]	WG(g) Day 25 (Ross broilers; [3]) [b g]	FCR day 39 (Ross broilers; [4]) [ab]	WG(g) Day 39 (Ross broilers; [4]) [b g]
CCCC(=O)[O-].[Na+] [Treatment B, sodium butyrate]	not statistically different from the control group	1.279	441.3	358.4	–	–	–	–	–	–	–
Avilamycine	–	–	–	–	1.314 ± 0.034	227 ± 7	performed better than the negative control group	1.775 ± 0.135	853 ± 44	1.839 ± 0.061	1981 ± 58
